Measurements published in article PMC9133015 (Nature Communications, 2022).
Where “and” joins values, the source holds several entries; their conditions need not be identical. Equal entries are not always repeated.

Key:
Assay in all cases: Kinase inhibitor specificity profiling (Reaction Biology Corporation)
Format in all cases: biochemical
Design in all cases: % Enzyme Activity (relative to DMSO controls): concentration or dose not given beside the values
[1] = target: T1, panel of 370 protein kinases (Homo sapiens, UniProt Q6PHR2); conditions: kinase ULK3
T1 construct: purchased Reaction Biology Corporation (assay service)
T1 sequence (Q6PHR2 whole entry): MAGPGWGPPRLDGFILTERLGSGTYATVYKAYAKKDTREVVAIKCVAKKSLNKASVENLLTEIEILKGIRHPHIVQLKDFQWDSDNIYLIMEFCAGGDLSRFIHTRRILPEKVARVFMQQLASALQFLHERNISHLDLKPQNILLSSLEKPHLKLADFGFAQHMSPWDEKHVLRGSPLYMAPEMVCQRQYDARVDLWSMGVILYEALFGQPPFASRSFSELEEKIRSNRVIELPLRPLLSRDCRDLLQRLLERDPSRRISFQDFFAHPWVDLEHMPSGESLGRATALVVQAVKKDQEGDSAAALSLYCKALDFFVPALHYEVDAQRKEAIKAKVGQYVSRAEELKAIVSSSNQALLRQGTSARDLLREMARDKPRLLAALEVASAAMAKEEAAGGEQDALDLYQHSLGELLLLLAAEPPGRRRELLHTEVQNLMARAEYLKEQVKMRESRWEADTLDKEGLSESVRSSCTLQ

[2] = target: T2, panel of 370 protein kinases (Homo sapiens, UniProt P36507); conditions: 2 h, kinase MEK2; read-out: % Enzyme Activity (relative to DMSO controls)
T2 construct: purchased Reaction Biology Corporation (assay service)

[3] = target: T3, panel of 370 protein kinases (Homo sapiens, UniProt Q16288); conditions: 2 h, kinase TRKC; read-out: % Enzyme Activity (relative to DMSO controls)
T3 construct: purchased Reaction Biology Corporation (assay service)
T3 sequence (Q16288 32-839): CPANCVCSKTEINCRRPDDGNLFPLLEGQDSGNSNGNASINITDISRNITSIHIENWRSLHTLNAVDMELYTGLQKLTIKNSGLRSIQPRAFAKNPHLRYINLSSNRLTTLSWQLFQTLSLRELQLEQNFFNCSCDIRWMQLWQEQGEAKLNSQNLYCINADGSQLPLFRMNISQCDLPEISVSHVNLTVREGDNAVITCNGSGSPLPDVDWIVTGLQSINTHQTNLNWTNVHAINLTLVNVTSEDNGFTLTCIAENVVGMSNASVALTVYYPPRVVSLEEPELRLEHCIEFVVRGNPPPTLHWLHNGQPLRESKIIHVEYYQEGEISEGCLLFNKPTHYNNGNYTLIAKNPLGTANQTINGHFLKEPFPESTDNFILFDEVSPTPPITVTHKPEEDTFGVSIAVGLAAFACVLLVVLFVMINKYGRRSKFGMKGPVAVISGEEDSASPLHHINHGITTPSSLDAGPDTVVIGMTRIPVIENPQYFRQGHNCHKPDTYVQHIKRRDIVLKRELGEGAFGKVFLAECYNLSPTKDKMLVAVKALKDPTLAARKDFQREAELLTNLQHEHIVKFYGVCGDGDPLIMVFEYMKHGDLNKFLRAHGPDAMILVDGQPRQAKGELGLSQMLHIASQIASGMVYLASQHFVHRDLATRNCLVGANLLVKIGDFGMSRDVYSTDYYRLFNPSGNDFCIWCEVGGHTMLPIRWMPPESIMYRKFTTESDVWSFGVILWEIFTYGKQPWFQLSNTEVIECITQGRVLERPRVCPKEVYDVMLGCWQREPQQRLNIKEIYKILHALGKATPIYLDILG

[4] = target: T4, panel of 370 protein kinases (Homo sapiens, UniProt Q9BUB5); conditions: 2 h, kinase MNK1; read-out: % Enzyme Activity (relative to DMSO controls)
T4 construct: purchased Reaction Biology Corporation (assay service)

[5] = target: T5, panel of 370 protein kinases (Homo sapiens, UniProt P22694); conditions: 2 h, kinase PKAcb; read-out: % Enzyme Activity (relative to DMSO controls)
T5 construct: purchased Reaction Biology Corporation (assay service)

[6] = target: T6, panel of 370 protein kinases (Homo sapiens, UniProt O94921); conditions: kinase CDK14/cyclin Y (PFTK1)
T6 construct: purchased Reaction Biology Corporation (assay service)
T6 sequence (O94921 whole entry): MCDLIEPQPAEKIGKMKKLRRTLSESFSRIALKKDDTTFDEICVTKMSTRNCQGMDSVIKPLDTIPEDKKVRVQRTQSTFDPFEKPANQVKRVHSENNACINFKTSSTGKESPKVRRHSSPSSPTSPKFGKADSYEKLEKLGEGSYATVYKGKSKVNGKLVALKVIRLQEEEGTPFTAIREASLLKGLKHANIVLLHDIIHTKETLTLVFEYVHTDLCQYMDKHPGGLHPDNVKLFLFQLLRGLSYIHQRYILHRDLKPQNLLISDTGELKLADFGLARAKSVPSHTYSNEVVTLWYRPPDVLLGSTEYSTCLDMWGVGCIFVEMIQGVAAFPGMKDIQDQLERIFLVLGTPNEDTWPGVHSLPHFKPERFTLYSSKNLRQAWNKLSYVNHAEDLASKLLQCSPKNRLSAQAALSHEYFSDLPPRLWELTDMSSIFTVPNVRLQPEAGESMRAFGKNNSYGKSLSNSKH

[7] = target: T7, panel of 370 protein kinases (Homo sapiens, UniProt P48730); conditions: 2 h, kinase CK1d; read-out: % Enzyme Activity (relative to DMSO controls)
T7 construct: purchased Reaction Biology Corporation (assay service)

[8] = target: T8, panel of 370 protein kinases (Homo sapiens, UniProt Q8NEV4); conditions: 2 h, kinase MYO3A; read-out: % Enzyme Activity (relative to DMSO controls)
T8 construct: purchased Reaction Biology Corporation (assay service)

[9] = target: T9, panel of 370 protein kinases (Homo sapiens, UniProt Q8IWQ3); conditions: 2 h, kinase BRSK2; read-out: % Enzyme Activity (relative to DMSO controls)
T9 construct: purchased Reaction Biology Corporation (assay service)
T9 sequence (Q8IWQ3 whole entry): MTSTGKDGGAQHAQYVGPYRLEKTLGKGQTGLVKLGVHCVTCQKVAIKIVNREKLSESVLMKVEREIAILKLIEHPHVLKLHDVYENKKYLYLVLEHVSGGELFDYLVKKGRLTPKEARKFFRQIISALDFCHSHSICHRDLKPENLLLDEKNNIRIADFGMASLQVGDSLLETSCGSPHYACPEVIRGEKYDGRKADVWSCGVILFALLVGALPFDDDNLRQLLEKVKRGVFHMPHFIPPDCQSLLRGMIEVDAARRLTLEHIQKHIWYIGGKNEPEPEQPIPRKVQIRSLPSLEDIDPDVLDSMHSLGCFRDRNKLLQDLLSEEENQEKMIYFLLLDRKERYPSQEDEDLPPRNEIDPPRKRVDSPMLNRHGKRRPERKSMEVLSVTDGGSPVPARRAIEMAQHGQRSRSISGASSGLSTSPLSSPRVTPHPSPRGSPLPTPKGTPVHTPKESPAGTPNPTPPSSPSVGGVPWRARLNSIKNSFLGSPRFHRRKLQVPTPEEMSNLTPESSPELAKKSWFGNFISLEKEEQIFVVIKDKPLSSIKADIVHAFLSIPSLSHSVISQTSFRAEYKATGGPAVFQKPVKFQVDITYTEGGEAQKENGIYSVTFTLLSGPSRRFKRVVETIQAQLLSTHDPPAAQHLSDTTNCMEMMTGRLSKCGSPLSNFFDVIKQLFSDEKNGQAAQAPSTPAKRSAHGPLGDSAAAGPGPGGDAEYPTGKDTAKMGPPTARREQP

[10] = target: T10, panel of 370 protein kinases (Homo sapiens, UniProt O60285); conditions: kinase ARK5/NUAK1
T10 construct: purchased Reaction Biology Corporation (assay service)
T10 sequence (O60285 whole entry): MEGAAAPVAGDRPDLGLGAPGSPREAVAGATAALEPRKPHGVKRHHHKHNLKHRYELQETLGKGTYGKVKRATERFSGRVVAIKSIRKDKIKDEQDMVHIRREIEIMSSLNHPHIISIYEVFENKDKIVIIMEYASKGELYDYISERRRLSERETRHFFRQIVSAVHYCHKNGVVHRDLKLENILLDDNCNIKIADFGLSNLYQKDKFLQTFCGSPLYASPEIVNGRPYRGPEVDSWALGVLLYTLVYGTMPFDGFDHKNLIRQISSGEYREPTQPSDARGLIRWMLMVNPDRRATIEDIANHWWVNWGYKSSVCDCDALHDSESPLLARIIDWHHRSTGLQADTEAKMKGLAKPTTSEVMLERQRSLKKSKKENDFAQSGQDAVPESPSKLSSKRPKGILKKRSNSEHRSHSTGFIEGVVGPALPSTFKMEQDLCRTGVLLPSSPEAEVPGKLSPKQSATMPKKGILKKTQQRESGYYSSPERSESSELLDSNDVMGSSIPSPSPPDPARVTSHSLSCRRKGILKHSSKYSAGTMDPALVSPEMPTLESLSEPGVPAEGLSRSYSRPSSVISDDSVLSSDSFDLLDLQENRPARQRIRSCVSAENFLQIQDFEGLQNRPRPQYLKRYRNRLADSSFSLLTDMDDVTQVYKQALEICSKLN

[11] = target: T11, panel of 370 protein kinases (Homo sapiens, UniProt Q13153); conditions: 2 h, kinase PAK1; read-out: % Enzyme Activity (relative to DMSO controls)
T11 construct: purchased Reaction Biology Corporation (assay service)

[12] = target: T12, panel of 370 protein kinases (Homo sapiens, UniProt Q15569); conditions: 2 h, kinase TESK1; read-out: % Enzyme Activity (relative to DMSO controls)
T12 construct: purchased Reaction Biology Corporation (assay service)

[13] = target: T13, panel of 370 protein kinases (Homo sapiens, UniProt P32298); conditions: 2 h, kinase GRK4; read-out: % Enzyme Activity (relative to DMSO controls)
T13 construct: purchased Reaction Biology Corporation (assay service)
T13 sequence (P32298 whole entry): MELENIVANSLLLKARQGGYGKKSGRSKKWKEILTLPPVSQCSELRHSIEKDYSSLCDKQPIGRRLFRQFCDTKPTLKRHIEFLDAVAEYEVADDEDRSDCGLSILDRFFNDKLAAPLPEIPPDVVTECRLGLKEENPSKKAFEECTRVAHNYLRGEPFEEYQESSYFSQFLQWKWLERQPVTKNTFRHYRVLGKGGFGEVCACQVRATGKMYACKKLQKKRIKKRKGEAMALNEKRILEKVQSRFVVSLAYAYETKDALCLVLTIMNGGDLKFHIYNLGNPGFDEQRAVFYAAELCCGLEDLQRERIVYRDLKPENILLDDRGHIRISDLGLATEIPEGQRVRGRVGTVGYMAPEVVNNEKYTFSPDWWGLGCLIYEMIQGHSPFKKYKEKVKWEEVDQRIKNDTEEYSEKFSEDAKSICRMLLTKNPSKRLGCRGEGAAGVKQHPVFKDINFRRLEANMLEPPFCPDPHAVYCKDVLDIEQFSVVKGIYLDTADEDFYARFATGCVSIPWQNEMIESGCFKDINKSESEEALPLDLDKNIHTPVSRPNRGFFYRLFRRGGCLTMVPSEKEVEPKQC

[14] = target: T14, panel of 370 protein kinases (Homo sapiens, UniProt O14965); conditions: 2 h, kinase Aurora A; read-out: % Enzyme Activity (relative to DMSO controls)
T14 construct: purchased Reaction Biology Corporation (assay service)
T14 sequence (O14965 whole entry): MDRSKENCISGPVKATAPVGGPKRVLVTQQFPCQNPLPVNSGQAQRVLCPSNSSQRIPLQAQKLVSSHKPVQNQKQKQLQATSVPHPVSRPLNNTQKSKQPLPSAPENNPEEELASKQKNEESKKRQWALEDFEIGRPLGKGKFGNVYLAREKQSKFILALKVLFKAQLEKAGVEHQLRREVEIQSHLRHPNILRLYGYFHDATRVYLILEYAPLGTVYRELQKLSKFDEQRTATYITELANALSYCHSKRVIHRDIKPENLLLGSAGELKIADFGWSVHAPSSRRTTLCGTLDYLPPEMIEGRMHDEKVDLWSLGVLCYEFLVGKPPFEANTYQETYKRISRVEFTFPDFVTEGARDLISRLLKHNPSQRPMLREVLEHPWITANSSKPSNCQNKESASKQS

[15] = target: T15, panel of 370 protein kinases (Homo sapiens, UniProt Q00536); conditions: 2 h, kinase CDK16/cyclin Y (PCTAIRE); read-out: % Enzyme Activity (relative to DMSO controls)
T15 construct: purchased Reaction Biology Corporation (assay service)

[16] = target: T16, panel of 370 protein kinases (Homo sapiens, UniProt O43293); conditions: 2 h, kinase ZIPK/DAPK3; read-out: % Enzyme Activity (relative to DMSO controls)
T16 construct: purchased Reaction Biology Corporation (assay service)
T16 sequence (O43293 whole entry): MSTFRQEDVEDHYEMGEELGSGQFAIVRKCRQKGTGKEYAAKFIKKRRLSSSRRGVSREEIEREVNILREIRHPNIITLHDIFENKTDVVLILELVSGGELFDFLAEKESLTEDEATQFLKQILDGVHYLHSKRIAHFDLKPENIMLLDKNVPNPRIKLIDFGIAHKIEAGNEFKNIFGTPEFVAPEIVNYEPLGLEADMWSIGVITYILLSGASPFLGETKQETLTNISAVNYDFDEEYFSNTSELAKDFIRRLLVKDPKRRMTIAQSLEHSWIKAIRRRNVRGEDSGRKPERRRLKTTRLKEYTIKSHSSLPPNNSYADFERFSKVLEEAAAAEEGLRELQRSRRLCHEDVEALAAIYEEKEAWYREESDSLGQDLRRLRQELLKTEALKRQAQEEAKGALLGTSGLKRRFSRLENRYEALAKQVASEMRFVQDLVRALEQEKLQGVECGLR

[17] = target: T17, panel of 370 protein kinases (Homo sapiens, UniProt Q9H422); conditions: 2 h, kinase HIPK3; read-out: % Enzyme Activity (relative to DMSO controls)
T17 construct: purchased Reaction Biology Corporation (assay service)

[18] = target: T18, panel of 370 protein kinases (Homo sapiens, UniProt Q86YV6); conditions: 2 h, kinase MYLK4; read-out: % Enzyme Activity (relative to DMSO controls)
T18 construct: purchased Reaction Biology Corporation (assay service)
T18 sequence (Q86YV6 whole entry): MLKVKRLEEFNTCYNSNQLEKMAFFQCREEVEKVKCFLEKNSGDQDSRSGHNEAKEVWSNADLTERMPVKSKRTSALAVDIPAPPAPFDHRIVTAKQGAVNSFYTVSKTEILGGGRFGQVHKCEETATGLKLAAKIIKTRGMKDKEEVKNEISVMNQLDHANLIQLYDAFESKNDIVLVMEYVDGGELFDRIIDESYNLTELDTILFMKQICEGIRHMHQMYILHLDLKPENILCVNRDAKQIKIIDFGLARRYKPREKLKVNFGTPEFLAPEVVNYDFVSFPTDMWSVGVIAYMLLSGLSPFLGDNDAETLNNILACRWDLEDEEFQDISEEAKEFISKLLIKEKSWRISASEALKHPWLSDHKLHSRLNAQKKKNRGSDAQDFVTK

[19] = target: T19, panel of 370 protein kinases (Homo sapiens, UniProt O14920); conditions: 2 h, kinase IKKb/IKBKB; read-out: % Enzyme Activity (relative to DMSO controls)
T19 construct: purchased Reaction Biology Corporation (assay service)

[20] = target: T20, panel of 370 protein kinases (Homo sapiens, UniProt O95835); conditions: 2 h, kinase LATS1; read-out: % Enzyme Activity (relative to DMSO controls)
T20 construct: purchased Reaction Biology Corporation (assay service)

[21] = target: T21, panel of 370 protein kinases (Homo sapiens, UniProt Q13177); conditions: 2 h, kinase PAK2; read-out: % Enzyme Activity (relative to DMSO controls)
T21 construct: purchased Reaction Biology Corporation (assay service)

**Q.** What does the source list for `CCN1CCN(C(=O)c2ccc(Nc3ncc(F)c(-c4ccc5nc(N(C)C)sc5c4)n3)nc2)CC1` [YK-2-69]?
**A.** % Enzyme Activity (relative to DMSO controls) [1]: 97.12% and 96.24%; remaining activity at 1 µM [2]: 97.4%; remaining activity at 1 µM [3]: 77.7%; remaining activity at 1 µM [4]: 89.6%; remaining activity at 1 µM [5]: 99.7%; % Enzyme Activity (relative to DMSO controls) [6]: 116.35% and 115.11%; remaining activity at 1 µM [7]: 104%; remaining activity at 1 µM [8]: 103%; remaining activity at 1 µM [9]: 96.3%; % Enzyme Activity (relative to DMSO controls) [10]: 87.08% and 86.46%; remaining activity at 1 µM [11]: 89.2%; remaining activity at 1 µM [12]: 108%; remaining activity at 1 µM [13]: 95.1%; remaining activity at 1 µM [14]: 80.6%; remaining activity at 1 µM [15]: 85.7%; remaining activity at 1 µM [16]: 67.1%; remaining activity at 1 µM [17]: 49.6%; remaining activity at 1 µM [18]: 44.6%; remaining activity at 1 µM [19]: 96%; remaining activity at 1 µM [20]: 95.2%; remaining activity at 1 µM [21]: 94.7%
